Reference: patent US12152017B2, “Ketoamide compound and preparation method, pharmaceutical composition, and use thereof” (Shanghai Institute of Materia Medica, Chinese Academy of …, priority 2018, dated 2024)
Where “and” joins values, the source holds several entries; their conditions need not be identical. Equal entries are not always repeated. Where two headings read alike, the source gives them in different places.

Tests used:
[1] = system: MERS-CoV pseudovirus; test: microbe, parasite or virus in culture; assay type: cell-based; conditions: Middle East respiratory syndrome-related coronavirus, Huh-7, read-out: MERS-CoV pseudovirus inhibitory activity IC50
[2] = Pharmacokinetic study in CD-1 mice (gavage, intravenous, intraperitoneal); assay type: in vivo; conditions: 20 mg/kg; for Cmax / Tmax / half-life / AUC(0-inf) / AUC(0-t) / MRT inf: male, CD-1, mouse, plasma; for AUC(0-inf): read-out: AUC INF_obs; for MRT inf: read-out: MRT INF_obs
Procedure: Nine CD-1 mice, male, weighing 18-22 g, were randomly divided into 3 groups with 3 mice in each group. The test compounds were administered by gavage, intravenously and intraperitoneally according to the following schemes.
Before the test, they were fasted for 12 hours and were allowed to drink water freely, and were fed uniformly 2 h after administration.
There were 3 animals at each time point.
The solution for gavage administration was formulated with DMSO/0.5% HPMC (5/95, v/v) into the final concentration. Intravenous and intraperitoneal administration were formulated with DMSO/PEG300/EtOH/NaCl (5/40/5/50, v/v/v). Retention samples of the dosing solution (50 μL of the drug solution was taken and mixed well with 50 μL of DMSO before and after the administration) for testing.
The drug was administered according to the above dosage, the time of administration were recorded, and 20 μL of blood was collected from the mouse femoral plexus at the above set time point and placed in a heparinized test tube and centrifuged immediately at 11000 rpm for 5 min. 10 μL of plasma was immediately and accurately drawn into a centrifuge tube pre-filled with 100 μL of PK-IS solution (prepared with methanol:acetonitrile (1:1, v/v)), mixed well, and frozen to store at −20° C. for testing.

[3] = i.p. (20 mg/Kg per Table 3), individual animal
[4] = ip, i.p. (20 mg/Kg per Table 3), Mean of 3 mice
[5] = ip, i.p. (20 mg/Kg per Table 3), individual animal
[6] = po, p.o. (gavage 20 mg/Kg per Table 3), Mean of 3 mice
[7] = po, p.o. (gavage 20 mg/Kg per Table 3), individual animal
[8] = p.o. (gavage 20 mg/Kg per Table 3), individual animal

Cc1cnc(C(=O)N[C@@H](CC2CCCCC2)C(=O)N[C@@H](C[C@@H]2CCNC2=O)C(=O)C(=O)NCc2ccccc2)o1 [Example A242, N—((S)-1-(((S)-4-(benzylamino)-3,4-dione-1-((S)-2-oxopyrrolidine-3-yl)but-2-yl)amino)-3-cyclohexyl-1-oxopropan-2-yl)-5-methyloxazole-2-carboxamide]
IC50 [1]: 2.2 ± 0.8 nM | AUC INF_obs [2, 3]: 5808 ng·h/mL and 6750 ng·h/mL | AUC last [2, 3]: 5779 ng·h/mL and 6628 ng·h/mL | C max [2, 3]: 4739 ng/mL and 5334 ng/mL | MRT INF_obs [2, 3]: 1.85 h and 2.45 h | T1/2 [2, 3]: 4.37 h and 6.75 h | Cmax [2, 4]: 5490 ng/mL | Tmax [2, 4]: 0.25 h | half-life [2, 4]: 5.32 h | AUC(0-inf) [2, 4]: 6960 ng·h/mL | AUC(0-t) ([2]; ip, i.p. (20 mg/Kg per Table 3), Mean of 3 mice, read-out: AUC last (exposure for intraperitoneal injection)): 6890 ng·h/mL | MRT inf [2, 4]: 2.07 h | Cmax [2, 5]: 6400 ng/mL | Tmax [2, 5]: 0.25 h | half-life [2, 5]: 4.85 h | AUC(0-inf) [2, 5]: 8320 ng·h/mL | AUC(0-t) ([2]; ip, i.p. (20 mg/Kg per Table 3), individual animal, read-out: AUC last): 8260 ng·h/mL | MRT inf [2, 5]: 1.92 h | Cmax [2, 6]: 409 ng/mL | Tmax [2, 6]: 0.25 h | half-life [2, 6]: 4.51 h | AUC(0-inf) [2, 6]: 493 ng·h/mL | AUC(0-t) ([2]; po, p.o. (gavage 20 mg/Kg per Table 3), Mean of 3 mice, read-out: AUC last (oral exposure)): 488 ng·h/mL | MRT inf [2, 6]: 2.56 h | Tmax [2, 7]: 0.25 h | half-life [2, 7]: 4 h | AUC(0-inf) [2, 7]: 436 ng·h/mL | AUC(0-t) ([2]; po, p.o. (gavage 20 mg/Kg per Table 3), individual animal, read-out: AUC last): 434 ng·h/mL | MRT inf [2, 7]: 2.13 h | AUC INF_obs [2, 8]: 413 ng·h/mL and 629 ng·h/mL | AUC last [2, 8]: 409 ng·h/mL and 622 ng·h/mL | C max [2, 8]: 499 ng/mL and 247 ng/mL and 482 ng/mL | MRT INF_obs [2, 8]: 2.84 h and 2.71 h | T1/2 [2, 8]: 4.63 h and 4.91 h

CC(C)NC(=O)CC[C@H](NC(=O)[C@H](CC1CCCCC1)NC(=O)c1cnc2ccccc2n1)C(=O)C(=O)NCc1ccccc1 [Example A236, N—((S)-1-(((S)-4-(benzyl)-3,4-dione-1-(isopropylamino)-2-yl)amino)-3-(cyclohexyl)-1-oxopropan-2-yl)-quinoxaline-2-carboxamide]
IC50 [1]: 16.6 ± 4 nM

Cc1c(C(=O)NC(CC2CCCCC2)C(=O)N[C@@H](C[C@@H]2CCCNC2=O)C(=O)C(=O)NCc2ccccc2)oc2ccccc12 (stereo partly shown) [Example A246]
IC50 [1]: 10.8 ± 10 nM

COc1ccc(OC)c2oc(C(=O)NC(CC3CCCCC3)C(=O)N[C@@H](C[C@@H]3CCCNC3=O)C(=O)C(=O)NCc3ccccc3)cc12 (stereo partly shown) [Example A248]
IC50 [1]: 8.4 ± 1.7 nM

O=C(NCc1ccccc1)C(=O)[C@H](C[C@@H]1CCCNC1=O)NC(=O)C(CC1CCCCC1)NC(=O)c1ccc2c(c1)OCO2 (stereo partly shown) [Example A243]
IC50 [1]: 10.7 ± 0.8 nM

O=C(NCc1ccccc1)C(=O)[C@H](C[C@@H]1CCCNC1=O)NC(=O)C(CC1CCCCC1)NC(=O)c1coc2ccccc12 (stereo partly shown) [Example A249]
IC50 [1]: 0.6 ± 0.2 nM

O=C(NCc1ccccc1)C(=O)[C@H](C[C@@H]1CCCNC1=O)NC(=O)[C@H](Cc1ccccc1)NC(=O)c1cnc2ccccc2n1 [Example A81, N—((S)-1-(((S)-4-(benzylamino)-3,4-dione-1-((S)-2-oxopiperidine-3-yl)but-2-yl)amino)-1-oxo-3-phenylpropan-2-yl)-quinoxaline-2-carboxamide]
IC50 [1]: 0.2 ± 0.1 nM

Cc1ccc2oc(C(=O)NC(CC3CCCCC3)C(=O)N[C@@H](C[C@@H]3CCCNC3=O)C(=O)C(=O)NCc3ccccc3)c(C)c2c1 (stereo partly shown) [Example A247]
IC50 [1]: 1.7 ± 0.4 nM

O=C(NC1CCCCC1)C(=O)[C@H](C[C@@H]1CCNC1=O)NC(=O)[C@H](CC1CCCCC1)NC(=O)c1ccc2ccccc2n1 [Example A44, N—((S)-3-cyclohexyl-1-(((S)-4-(cyclohexylamino)-3,4-dione-1-((S)-2-oxopyrrolidine-3-yl)but-2-yl)amino)-3-cyclohexyl-1-oxopropan-2-yl)-quinoline-2-carboxamide]
IC50 [1]: 18 ± 5.6 nM

O=C(NCc1ccccc1)C(=O)[C@H](C[C@@H]1CCCNC1=O)NC(=O)C(CC1CCCCC1)NC(=O)c1nc2ccccc2[nH]1 (stereo partly shown) [Example A244]
IC50 [1]: 12.6 ± 12.2 nM

O=C(NCc1ccccc1)C(=O)[C@H](C[C@@H]1CCCNC1=O)NC(=O)[C@H](CC1CCCCC1)NC(=O)c1cc2ccccc2s1 [Example A21]
IC50 [1]: 8.2 ± 3.2 nM

O=C(NCc1ccccc1)C(=O)[C@H](C[C@@H]1CCCNC1=O)NC(=O)[C@H](CC1CCCCC1)NC(=O)c1cc2ccccc2[nH]1 [Example A5]
IC50 [1]: 0.5 ± 0.2 nM

Cn1c(C(=O)N[C@@H](CC2CCCCC2)C(=O)N[C@@H](C[C@@H]2CCCNC2=O)C(=O)C(=O)NCc2ccccc2)cc2ccccc21 [Example A27]
IC50 [1]: 8 ± 4 nM

COc1cccc2cc(C(=O)NC(CC3CCCCC3)C(=O)N[C@@H](C[C@@H]3CCCNC3=O)C(=O)C(=O)NCc3ccccc3)oc12 (stereo partly shown) [Example A245]
IC50 [1]: 18.4 ± 8 nM

O=C(NCc1ccccc1)C(=O)[C@H](C[C@@H]1CCCNC1=O)NC(=O)[C@H](CC1CCCCC1)NC(=O)c1cc2ccc(F)cc2[nH]1 [Example A240]
IC50 [1]: 15.9 ± 7 nM

O=C(NC1CCCCC1)C(=O)[C@H](C[C@@H]1CCCNC1=O)NC(=O)[C@H](CC1CCCCC1)NC(=O)c1cc2ccccc2o1 [Example A15]
IC50 [1]: < 0.1 nM

O=C(NCc1ccccc1)C(=O)[C@H](C[C@@H]1CCCNC1=O)NC(=O)C(CC1CCCCC1)NC(=O)C1=Cc2cc(Cl)ccc2OC1 (stereo partly shown) [Example A250]
IC50 [1]: 0.7 ± 0.1 nM

CC(C)NC(=O)CC[C@H](NC(=O)[C@H](CC1CCCCC1)NC(=O)c1cc2ccccc2[nH]1)C(=O)C(=O)NCc1ccccc1 [Example A232, N—((S)-1-(((S)-4-(benzyl)-3,4-dione-1-(isopropylamino)-2-yl)amino)-3-(cyclohexyl)-1-oxopropan-2-yl)-1H-indole-2-carboxamide]
IC50 [1]: 13.4 ± 3 nM

Cn1c(C(=O)N[C@@H](CC2CCCCC2)C(=O)N[C@@H](C[C@@H]2CCNC2=O)C(=O)C(=O)NC2CCCCC2)cc2ccccc21 [Example A26, N—((S)-3-cyclohexyl-1-(((S)-4-(cyclohexylamino)-3,4-dione-1-((S)-2-oxopyrrolidine-3-yl)but-2-yl)amino)-3-cyclohexyl-1-oxopropan-2-yl)-1-methyl-1H-indole-2-carboxamide]
IC50 [1]: 7.8 ± 3.5 nM

O=C(NCc1ccccc1)C(=O)[C@H](C[C@@H]1CCCNC1=O)NC(=O)[C@H](Cc1ccccc1)NC(=O)c1cc2ccccc2[nH]1 [Example A51, N—((S)-1-(((S)-4-(benzylamino)-3,4-dione-1-((S)-2-oxopiperidine-3-yl)but-2-yl)amino)-1-oxo-3-phenylpropan-2-yl)-1H-indole-2-carboxamide]
IC50 [1]: < 0.1 nM

Cn1c(C(=O)N[C@@H](CC2CCCCC2)C(=O)N[C@@H](C[C@@H]2CCNC2=O)C(=O)C(=O)NC(C)(C)C)cc2ccccc21 [Example A25]
IC50 [1]: 407 ± 352 nM

CC(C)(C)NC(=O)C(=O)[C@H](C[C@@H]1CCNC1=O)NC(=O)[C@H](CC1CCCCC1)NC(=O)c1ccc2ccccc2n1 [Example A43]
IC50 [1]: 786 ± 458 nM
